For data set [1], the target named is T1, FLT-3 (Homo sapiens, UniProt P36888).
T1 sequence (P36888 27-993): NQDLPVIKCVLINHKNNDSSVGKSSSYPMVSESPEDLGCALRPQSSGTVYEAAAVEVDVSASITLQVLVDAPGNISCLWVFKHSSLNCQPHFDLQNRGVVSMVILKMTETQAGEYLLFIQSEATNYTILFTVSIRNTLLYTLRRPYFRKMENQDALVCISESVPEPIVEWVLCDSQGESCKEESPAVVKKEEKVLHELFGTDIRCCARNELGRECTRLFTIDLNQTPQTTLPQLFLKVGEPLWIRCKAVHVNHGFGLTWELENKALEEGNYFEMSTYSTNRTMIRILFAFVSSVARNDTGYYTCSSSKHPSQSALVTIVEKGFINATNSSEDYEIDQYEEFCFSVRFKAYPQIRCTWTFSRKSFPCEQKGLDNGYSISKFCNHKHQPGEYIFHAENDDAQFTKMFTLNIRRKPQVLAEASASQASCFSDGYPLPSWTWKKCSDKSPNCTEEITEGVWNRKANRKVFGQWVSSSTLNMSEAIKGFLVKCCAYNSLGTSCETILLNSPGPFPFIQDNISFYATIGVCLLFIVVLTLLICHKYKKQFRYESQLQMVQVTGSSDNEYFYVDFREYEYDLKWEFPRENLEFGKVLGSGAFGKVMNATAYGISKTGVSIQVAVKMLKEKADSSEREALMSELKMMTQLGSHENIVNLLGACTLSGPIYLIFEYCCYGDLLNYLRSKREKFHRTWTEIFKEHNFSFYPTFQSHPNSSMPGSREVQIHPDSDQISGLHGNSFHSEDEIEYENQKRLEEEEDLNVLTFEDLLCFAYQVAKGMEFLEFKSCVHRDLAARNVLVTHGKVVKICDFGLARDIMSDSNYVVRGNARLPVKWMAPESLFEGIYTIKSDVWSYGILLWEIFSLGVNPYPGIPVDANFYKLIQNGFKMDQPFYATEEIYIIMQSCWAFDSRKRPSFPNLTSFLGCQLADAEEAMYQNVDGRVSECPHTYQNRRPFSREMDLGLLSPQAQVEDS
The data set is described as follows: radioisotope-based P81 filter-binding assay, FLT-3 kinase. It is filed as biochemical. The conditions noted are these: averaged from two independent dose-response curves; read-out: Enzyme assay IC50 FLT-3. How it is done:
(§1) Compounds of formula (I)-(IV) were evaluated for abilities in inhibiting protein kinases aurora B and FLT-3 activity using radioisotope-based P81 filter-binding assay (Table 1).

The target in data set [2] is aurora B (Homo sapiens, UniProt Q96GD4). The data set is described as follows: radioisotope-based P81 filter-binding assay, aurora B kinase. The format is biochemical. The conditions noted are these: averaged from two independent dose-response curves; read-out: Enzyme assay IC50 Aur B. How it is done:
as §1

In data set [3] the test system is MV4-11 human acute myelomonocytic leukemia cells. The data set is described as follows: anti-proliferation, SRB colorimetric assay, MV4-11. It is filed as cell-based. Conditions: concentration required for 50% growth inhibition. The method, then:
HCT116 human colorectal carcinoma cells (Table 3), HepG2 human hepatocellular carcinoma cells (Table 4), and MV4-11 human acute myelomonocytic leukemia cells (Table 5). Cells were treated with the test compound and the concentration required for 50% growth inhibition (IC50) determined by sulfomodamine B (SRB) colorimetric assay.

Chain of aurora B (Q96GD4 whole entry): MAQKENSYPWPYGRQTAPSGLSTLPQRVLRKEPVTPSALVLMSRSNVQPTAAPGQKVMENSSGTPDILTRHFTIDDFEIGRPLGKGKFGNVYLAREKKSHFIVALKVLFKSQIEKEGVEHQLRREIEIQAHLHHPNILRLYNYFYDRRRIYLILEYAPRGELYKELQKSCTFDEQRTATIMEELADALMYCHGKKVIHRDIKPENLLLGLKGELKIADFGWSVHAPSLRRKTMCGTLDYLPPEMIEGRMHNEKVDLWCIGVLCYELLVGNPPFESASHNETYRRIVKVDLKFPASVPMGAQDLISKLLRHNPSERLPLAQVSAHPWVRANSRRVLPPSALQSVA

Compound `COc1ccc(-c2c[nH]cc(C(=O)Nc3ccc4c(c3)NC(=O)/C4=C\c3[nH]c(C)c(C(=O)NCCN4CCCC4)c3C)c2=O)cc1` [D156, (Z)—N-(3-((3,5-dimethyl-4-((2-(pyrrolidin-1-yl)ethyl)carbamoyl)-1H-pyrrol-2-yl)methylene)-2-oxoindolin-6-yl)-5-(4-methoxyphenyl)-4-oxo-1,4-dihydropyridine-3-carboxamide] had a melting point greater than 300 °C. Also, the IC50 in data set [1] turned out to be 0.0116 µM. Further, in data set [2], the IC50 stood at 0.0192 µM. Also, the IC50 in data set [3] turned out to be 0.00257 µM.
For `O=C(NC(=O)c1ccc(Cl)c(C(F)(F)F)c1)Nc1ccc2c(c1)NC(=O)/C2=C\c1ccc[nH]1` [D28, (Z)—N-(3-((1H-pyrrol-2-yl)methylene)-2-oxoindolin-6-ylcarbamoyl)-4-chloro-3-(trifluoromethyl)benzamide], in that order: 280 to 285 °C (dec.), 0.385 µM, 0.015 µM and 0.00079 µM.
For `O=C1Nc2cc(NC(=O)c3cccn(-c4cccc(Cl)c4)c3=O)ccc2/C1=C/c1ccc[nH]1` [D114], in that order: greater than 300 °C, 0.0912 µM, 0.251 µM and 0.00155 µM.
Taken in the same sequence, the figures for `Cc1[nH]c(/C=C2\C(=O)Nc3cc(NC(=O)c4cccn(-c5ccc(F)cc5)c4=O)ccc32)c(C)c1C(=O)O` [D120, (Z)-5-((6-(1-(4-fluorophenyl)-2-oxo-1,2-dihydropyridine-3-carboxamido)-2-oxoindolin-3-ylidene)methyl)-2,4-dimethyl-1H-pyrrole-3-carboxylic acid] were greater than 300 °C, 0.0081 µM, 0.0107 µM and 0.00023 µM.
The compound `Cc1[nH]c(/C=C2\C(=O)Nc3cc(NC(=O)c4c[nH]cc(-c5ccc(F)cc5)c4=O)ccc32)c(C)c1C(=O)O` [D141, (Z)-5-((6-(5-(4-fluorophenyl)-4-oxo-1,4-dihydropyridine-3-carboxamido)-2-oxoindolin-3-ylidene)methyl)-2,4-dimethyl-1H-pyrrole-3-carboxylic acid] had a melting point of 283 °C. Also, the IC50 in data set [1] amounted to 0.0029 µM. Further, the IC50 in data set [2] came to 0.0035 µM. The same compound had a half-maximal inhibitory concentration (IC50) in data set [3] of 0.00081 µM.
For `COc1ccc(-n2cccc(C(=O)Nc3ccc4c(c3)NC(=O)/C4=C\c3ccc[nH]3)c2=O)cc1` [D106, (Z)—N-(3-((1H-pyrrol-2-yl)methylene)-2-oxoindolin-6-yl)-1-(4-methoxyphenyl)-2-oxo-1,2-dihydropyridine-3-carboxamide], in that order: greater than 300 °C, greater than 1 µM, 0.209 µM and 0.0126 µM.
Taken in the same sequence, the figures for `Cc1cc(C)c(/C=C2\C(=O)Nc3cc(NC(=O)c4cccn(-c5ccc(F)cc5)c4=O)ccc32)[nH]1` [D119, (Z)—N-(3-((3,5-dimethyl-1H-pyrrol-2-yl)methylene)-2-oxoindolin-6-yl)-1-(4-fluorophenyl)-2-oxo-1,2-dihydropyridine-3-carboxamide] were greater than 300 °C, 0.0081 µM, greater than 1 µM and 0.00139 µM.
For `Cc1ccc(-n2cccc(C(=O)Nc3ccc4c(c3)NC(=O)/C4=C\c3ccc[nH]3)c2=O)cc1` [D111, (Z)—N-(3-((1H-pyrrol-2-yl)methylene)-2-oxoindolin-6-yl)-2-oxo-1-p-tolyl-1,2-dihydropyridine-3-carboxamide], in that order: greater than 300 °C, 0.0375 µM, 0.209 µM and 0.00342 µM.
On to `Cc1[nH]c(/C=C2\C(=O)Nc3cc(NC(=O)c4c[nH]cc(-c5ccc(F)cc5)c4=O)ccc32)c(C)c1CC(=O)O` [D144, (Z)-2-(5-((6-(5-(4-fluorophenyl)-4-oxo-1,4-dihydropyridine-3-carboxamido)-2-oxoindolin-3-ylidene)methyl)-2,4-dimethyl-1H-pyrrol-3-yl)acetic acid], for which the melting point is greater than 300 °C. In addition, in data set [1], the IC50 turned out to be 0.0013 µM. The IC50 in data set [2] is 0.0023 µM. In addition, the IC50 in data set [3] came to 0.0228 µM.
In the case of `O=C1Nc2cc(NC(=O)c3cccn(-c4ccccc4F)c3=O)ccc2/C1=C/c1ccc[nH]1` [D115], the melting point was greater than 300 °C. The IC50 in data set [1] was determined as 0.535 µM. In data set [2], the IC50 amounted to 0.138 µM. This compound also returned an IC50 in data set [3] of 0.00669 µM.
As for `Cc1[nH]c(/C=C2\C(=O)Nc3cc(NC(=O)c4c[nH]cc(-c5ccc(F)cc5)c4=O)ccc32)c(C)c1CCC(=O)O` [D145, (Z)-3-(5-((6-(5-(4-fluorophenyl)-4-oxo-1,4-dihydropyridine-3-carboxamido)-2-oxoindolin-3-ylidene)methyl)-2,4-dimethyl-1H-pyrrol-3-yl)propanoic acid], the melting point is greater than 300 °C. The IC50 in data set [1] worked out at 0.0016 µM. For the same compound, the IC50 in data set [2] was found to be 0.0034 µM. This compound also yielded an IC50 in data set [3] of 0.00945 µM.
For `O=C1Nc2cc(NC(=O)c3cccn(-c4ccc(C(F)(F)F)cc4)c3=O)ccc2/C1=C/c1ccc[nH]1` [D112], in that order: greater than 300 °C, 0.137 µM, greater than 1 µM and 0.00209 µM.
Turning to `O=C1Nc2cc(NC(=O)c3cccn(-c4ccccc4)c3=O)ccc2/C1=C/c1ccc[nH]1` [D105, (Z)—N-(3-((1H-pyrrol-2-yl)methylene)-2-oxoindolin-6-yl)-2-oxo-1-phenyl-1,2-dihydropyridine-3-carboxamide], the melting point was greater than 300 °C. Further, the IC50 in data set [1] was determined as 0.0484 µM. For the same compound, in data set [2], the IC50 was 0.0874 µM. Half-maximal inhibition in data set [3] (IC50) required 0.00013 µM.
For `Cc1[nH]c(/C=C2\C(=O)Nc3cc(NC(=O)c4cccn(-c5ccc(F)cc5)c4=O)ccc32)c(C)c1CCC(=O)O` [D122], in that order: greater than 300 °C, 0.0035 µM, 0.0055 µM and 0.0158 µM.
For `O=C1Nc2cc(NC(=O)c3cccn(-c4ccc(Cl)cc4)c3=O)ccc2/C1=C/c1ccc[nH]1` [D108], in that order: greater than 300 °C, 0.0263 µM, greater than 1 µM and 0.00088 µM.
For `O=C1Nc2cc(NC(=O)c3cccn(-c4cccc(C(F)(F)F)c4)c3=O)ccc2/C1=C/c1ccc[nH]1` [D113], in that order: greater than 300 °C, 0.134 µM, 0.689 µM and 0.00278 µM.
Compound `COC(=O)CCc1c(C)[nH]c(/C=C2\C(=O)Nc3cc(NC(=O)c4cccn(-c5ccc(F)cc5)c4=O)ccc32)c1C` [D123, (Z)-methyl-3-(5-((6-(1-(4-fluorophenyl)-2-oxo-1,2-dihydropyridine-3-carboxamido)-2-oxoindolin-3-ylidene)methyl)-2,4-dimethyl-1H-pyrrol-3-yl)propanoate] displayed a melting point of 266 to 270 °C. Moreover, in data set [1], the IC50 amounted to 0.0452 µM. Besides, the 50% inhibitory concentration (IC50) in data set [2] amounted to 0.238 µM. In data set [3], the IC50 amounted to 0.00156 µM.

The values above are taken from patent US8946282B2, “Indolin-2-one derivatives as protein kinase inhibitors” (Annji Pharmaceutical Co., Ltd., priority 2012, dated 2015).
